Laboratory results taken from patent US20100086931A1, “METHOD FOR ASSAYING ACTION OF ANTITUMOR AGENT USING DECREASE IN GENE EXPRESSION LEVEL AS INDEX” (Eisai R&D Management Co., Ltd., priority 2007, published 2010).

System: peripheral blood mononuclear cells (PBMC)
Experiment: Microarray analysis (Human Genome U133 plus 2.0 array) of mRNA expression in PBMC treated with compound A
Type: cell-based
Conditions: 100 nM, ratio to control
Excerpt: Since it is not easy to obtain a cancer tissue clinically, the measurement of the marker in hemocytes readily obtainable in peripheral blood would be more useful. Specifically blood was taken from a normal individual (volunteer) and peripheral blood mononuclear cells were purified and treated with compound A, followed by measurement of change in expression of the gene (mRNA) with the microarray (Human Genome […] plus 2.0 array: Affymetrix).
Ficoll-Paque PLUS solution (Amersham, 17-1440-02) was slowly added to the blood taken (with heparin added) from a healthy individual to form a layer underneath the blood (15 ml of Ficoll-Paque PLUS solution was added to 25 ml of blood). After the mixture was centrifuged at 1500 rpm for 30 min, the upper part containing platelets was removed and then a layer containing mononuclear cells was transferred to another tube. The cells were suspended in PBS and centrifuged at 1500 rpm for 5 min, followed by removal of the supernatant. After these steps were repeated twice, the cells were again suspended in RPMI1640 (containing 10% FBS). The number of the cells was then counted.
The cells were suspended in the medium to 5×10^6 cells/ml and plated 1 ml per well of a 24-well plate. Immediately, 111 μl of compound A (ten times more concentrated than the final concentrations) was added to the well (four wells per each concentration tested). The cells were then cultured in an incubator with 5% carbon dioxide gas at 37° C. Two or four hours later, the supernatant was collected and centrifuged at 1500 rpm for five minutes. TRI reagent (SIGMA) (1 ml) was added to each well of the plate from which the supernatant was removed to harvest the cells, which was added to the centrifuged pellet to dissolve. RNA was purified in accordance with the protocol of TRI reagent. RNA was further purified using RNeasy (QIAGEN). Absorbance at 260 nm was measured to quantify an amount of RNA.
A .cel file for each sample was obtained by using GeneChip Operating Software Ver.1.2 (Affymetrix). The RMA method was applied to ten of the .cel files obtained in the microarray experiment. Log signal intensity at a gene level was obtained by normalization of that at a probe level. By subtracting a control value from log signal intensity for each case, the log signal intensity was converted into a log signal ratio to the control. Genes were narrowed down in the basis of a log signal ratio, and a signal value. Specifically, among genes showing that the P value was 5% or less; the expression level in the untreated (control) is 100 or more by signal value; and the expression level when treated with 10 nM of compound A both for two and four hours decreased by 50% or more, genes of which expression level decreased to 25% or less upon the two-hour treatment were picked out. The software used is R2.2.1 (http://www.r-project.org/), affy package 1.8.1 (http://www.bioconductor.org).
Among genes showing, upon the treatment with compound A, that the P value was 5% or less; the expression level in the untreated (control) is 100 or more by signal value; and the expression level when treated with 10 nM of compound A both for two and four hours decreased by 50% or more, genes of which expression level decreased to 25% or less upon the two-hour treatment, and results thereof were shown in Table 2. For each gene evaluated, gene name (Gene Name), abbreviated name (Gene Symbol), accession number (Accession), alias name (Synonym), Probe set number in Human Genome U133 Plus 2.0 Array (Human Genome U133 Plus 2.0 Array Probeset ID), the expression level upon the two-hour treatment with E7107 (E7107 (2 h)), and the expression level upon the four-hour treatment with E7107 (E7107 (4 h)) were respectively shown in Table 2.

CCC(O)C(C)C1OC1CC(C)(O)/C=C/C=C(\C)C1OC(=O)CC(O)CCC(C)(O)C(OC(=O)N2CCN(C3CCCCCC3)CC2)/C=C/C1C (stereo not drawn) [E7107, (8E,12E,14E)-7-((4-Cycloheptylpiperazin-1-yl)carbonyl)oxy-3,6,16,21-tetrahydroxy-6,10,12,16,20-pentamethyl-18,19-epoxytricosa-8,12,14-trien-11-olide]
AHSA2 mRNA expression level (226665_at) (2 h): 0.20
ATXN1 mRNA expression level (242230_at) (2 h): 0.25
C13orf31 mRNA expression level (228937_at) (2 h): 0.04
C15orf48 mRNA expression level (223484_at) (2 h): 0.02
CCRL2//LOC642312 mRNA expression level (211434_s_at) (2 h): 0.22
CLEC5A mRNA expression level (219890_at) (2 h): 0.08
CSF2RA mRNA expression level (210340_s_at) (2 h): 0.08
CTSL1 mRNA expression level (202087_s_at) (2 h): 0.20
DHRS9 mRNA expression level (223952_x_at) (2 h): 0.18
DOK3 mRNA expression level (223553_s_at) (2 h): 0.30
FPRL2 mRNA expression level (230422_at) (2 h): 0.05
GNA15 mRNA expression level (205349_at) (2 h): 0.11
GPR84 mRNA expression level (223767_at) (2 h): 0.19
GTF2H1 mRNA expression level (202451_at) (2 h): 0.07
HNRPA2B1 mRNA expression level (225107_at) (2 h): 0.07
HPSE mRNA expression level (222881_at) (2 h): 0.13
IQCG mRNA expression level (235347_at) (2 h): 0.08
LOC51315 mRNA expression level (233329_s_at) (2 h): 0.11
MS4A7 mRNA expression level (224358_s_at) (2 h): 0.22
NLRP12 mRNA expression level (1554952_s_at) (2 h): 0.24
NRIP3 mRNA expression level (219557_s_at) (2 h): 0.11
NSMCE4A mRNA expression level (228506_at) (2 h): 0.19
OLR1 mRNA expression level (210004_at) (2 h): 0.01
RAPH1 mRNA expression level (225188_at) (2 h): 0.05
RBBP6 mRNA expression level (212781_at) (2 h): 0.12
SLC25A19 mRNA expression level (223222_at) (2 h): 0.17
SLC43A2 mRNA expression level (228918_at) (2 h): 0.17
TNFAIP6 mRNA expression level (206026_s_at) (2 h): 0.07
TNS1 mRNA expression level (221748_s_at) (2 h): 0.09
TRAPPC4 mRNA expression level (217959_s_at) (2 h): 0.08
Transcribed locus mRNA expression level (230098_at) (2 h): 0.08
WSB1 mRNA expression level (201294_s_at) (2 h): 0.29
ZCCHC6 mRNA expression level (220933_s_at) (2 h): 0.14
AHSA2 mRNA expression level (226665_at) (4 h): 0.23
ATXN1 mRNA expression level (242230_at) (4 h): 0.13
C13orf31 mRNA expression level (228937_at) (4 h): 0.06
C15orf48 mRNA expression level (223484_at) (4 h): 0.01
CCRL2//LOC642312 mRNA expression level (211434_s_at) (4 h): 0.29
CLEC5A mRNA expression level (219890_at) (4 h): 0.01
CSF2RA mRNA expression level (210340_s_at) (4 h): 0.10
CTSL1 mRNA expression level (202087_s_at) (4 h): 0.13
DHRS9 mRNA expression level (223952_x_at) (4 h): 0.12
DOK3 mRNA expression level (223553_s_at) (4 h): 0.35
FPRL2 mRNA expression level (230422_at) (4 h): 0.02
GNA15 mRNA expression level (205349_at) (4 h): 0.15
GPR84 mRNA expression level (223767_at) (4 h): 0.38
GTF2H1 mRNA expression level (202451_at) (4 h): 0.02
HNRPA2B1 mRNA expression level (225107_at) (4 h): 0.10
HPSE mRNA expression level (222881_at) (4 h): 0.11
IQCG mRNA expression level (235347_at) (4 h): 0.05
LOC51315 mRNA expression level (233329_s_at) (4 h): 0.06
MS4A7 mRNA expression level (224358_s_at) (4 h): 0.03
NLRP12 mRNA expression level (1554952_s_at) (4 h): 0.20
NRIP3 mRNA expression level (219557_s_at) (4 h): 0.24
NSMCE4A mRNA expression level (228506_at) (4 h): 0.19
OLR1 mRNA expression level (210004_at) (4 h): 0.00
RAPH1 mRNA expression level (225188_at) (4 h): 0.10
RBBP6 mRNA expression level (212781_at) (4 h): 0.17
SLC25A19 mRNA expression level (223222_at) (4 h): 0.18
SLC43A2 mRNA expression level (228918_at) (4 h): 0.08
TNFAIP6 mRNA expression level (206026_s_at) (4 h): 0.02
TNS1 mRNA expression level (221748_s_at) (4 h): 0.06
TRAPPC4 mRNA expression level (217959_s_at) (4 h): 0.04
Transcribed locus mRNA expression level (230098_at) (4 h): 0.08
WSB1 mRNA expression level (201294_s_at) (4 h): 0.25
ZCCHC6 mRNA expression level (220933_s_at) (4 h): 0.06
